In patent publication EP2785358B1, “INSULIN-MIMETICS AS THERAPEUTIC ADJUNCTS FOR BONE REGENERATION” (priority 2011, dated 2013):
Where “and” joins values, the source holds several entries; their conditions need not be identical. Equal values may be shown once. Marks after values point to notes of the source that are not given here.

Legend:
[1] = tested on: femur fractures; experiment: Histomorphometry, local VAC without a carrier; assay type: in vivo, BB Wistar rats; conditions: for % Cartilage / % Mineralized Tissue / Callus Area: no carrier
Description: Two independent reviewers were used to minimize inconsistencies.

[2] = tested on: femur fractures; experiment: Torsional mechanical testing, local VAC without a carrier in normal rats; assay type: in vivo, non-diabetic BB Wistar rats; parameters: Percent Effective Shear Modulus / Percent Effective Shear Stress: scale not given: direction of the effect not stated beside the values
Procedure: A closed mid-diaphyseal fracture surgery was performed on the right femur of each rat as described previously. […] A closed, midshaft fracture was then created using a three-point bending fracture instrument (BBC Specialty Automotive, Linden NJ) and confirmed with X-rays immediately post-fracture.

[3] = tested on: femur fractures; experiment: Long-term radiographic analysis at twelve weeks, local VAC; assay type: in vivo, normal (non-diabetic) rats; conditions: for ectopic bone formation on radiographs: twelve weeks post-fracture
Procedure: The effect of local vanadium therapy on healing of femur fractures in normal (non-diabetic) rats was measured by radiographic analysis.

[4] = tested on: femur fractures; experiment: Early immunohistochemistry (BrdU cell proliferation), local VAC; assay type: in vivo, BB Wistar rats
Procedure: At days 2, 4, and 7, and 10, animals were injected intraperitoneally with 30 mg/kg of 5-bromo-2'deoxyuridine (BrdU, Sigma Chemical Co., St. Louis, MO) one hour prior to sacrifice to label replicating cells as a measure of cellular proliferation. The fractured femurs were resected and fixed in formalin, decalcified (Immunocal, Decal Corp., Tallman, NY), embedded in paraffin, and sectioned longitudinally (5 µm thick). Cells positive for BrdU incorporation were detected by immunohistochemistry using commercially available reagents (DAKO Corp., Carpentaria, California). Digital images of each fracture were collected with an Olympus BH2-RFCA microscope equipped with a Nikon DXM1200f camera. For each specimen, callus area was measured and the BrdU positive cells in the periosteal callus region were counted using Image Pro Plus software. All BrdU positive cells in the external callus to a maximum of 1 cm proximal and distal of the fracture site and 3 mm from the external surface of the femur were counted. The number of BrdU positive cells was normalized per unit area of callus and only one datum per rat (BrdU positive cells per mm2) was used for the statistical analysis.

[5] = Vanadium quantification in femur by atomic absorption spectrophotometry; assay type: in vivo, BB Wistar rats; conditions: 0.1 mL of 4.35 mg/mL VAC solution (approximately 1.5 mg VAC/kg) into femoral canal
Procedure: BB Wistar rats were anesthetized and confirmed to be non-responsive to external stimuli before beginning the surgical procedure. The anesthetized rat was be exsanguinated by cardiac puncture using a 10 ml syringe with a 22 gauge needle after shallow puncture just lateral to the sternum and through the intercostal space. After puncturing the dermis and cardiac wall slight backpressure was placed on the plunger to withdraw blood from the ventricle. The collected blood was transferred to an appropriate container used for collection of plasma (heparinized) or serum (non-heparinized). Following the cardiac puncture, the rats were euthanized via cervical dislocation.
The excised femora were be stripped of adhering muscle, tendon and other tissue after which the bones were rinsed three times with deionized water, and then placed on glassine paper and air dried. The pin was rinsed once and stored in a clean conical tube. The liver, kidneys, brain, and left humerous collected were rinsed 3x and air dried. The objective of "drying" was to remove adhering water droplets after the water rinse and to allow the true tissue weight to be recorded as precisely as possible. […] The organs were then placed into a low temperature (-80 degrees Celsius) freezer for storage until future analysis (quantification not currently planned). […]

[6] = VAC 1.5 mg/kg local, 10 Days Post-Fracture
[7] = VAC 1.5 mg/kg local, 14 Days Post-Fracture
[8] = VAC 1.5 mg/kg local, 21 Days Post-Fracture
[9] = VAC 3.0 mg/kg local, 10 Days Post-Fracture
[10] = VAC 3.0 mg/kg local, 14 Days Post-Fracture
[11] = VAC 3.0 mg/kg local, 21 Days Post-Fracture
[12] = VAC 0.5 mg/kg local, no carrier, normal rats, 4 weeks
[13] = VAC 0.5 mg/kg local, no carrier, normal rats, 4 weeks, normalized to intact femur
[14] = VAC 1.5 mg/kg Autoclaved, no carrier, four weeks
[15] = VAC 1.5 mg/kg Gamma Irradiated, no carrier, four weeks
[16] = VAC 1.5 mg/kg local, no carrier, normal rats, 5 weeks
[17] = VAC 1.5 mg/kg local, rats of advanced age (190-195 days), four weeks
[18] = VAC 1.5 mg/kg without sterilization, no carrier, four weeks
[19] = VAC 1.5 mg/kg without sterilization, no carrier, four weeks, normalized to intact femur
[20] = VAC 3.0 mg/kg local, no carrier, normal rats, 4 weeks
[21] = VAC 3.0 mg/kg local, no carrier, normal rats, 4 weeks, normalized to intact femur

## CC(=O)/C=C(/C)[O-].CC(=O)/C=C(/C)[O-].[O]=[V+2] [VAC, Vanadyl acetylacetonate]
[1]; [6]
  % Cartilage: 30.6 ± 12.4^∗ (n=7) %
  % Mineralized Tissue: 15.8 ± 5.1 (n=7) %
  Callus Area: 18.4 ± 3.6 (n=7) mm^2
[1]; [7]
  % Cartilage: 14.2 ± 4.9 (n=5) %
  % Mineralized Tissue: 21.3 ± 2.1^∗ (n=5) %
  Callus Area: 21.7 ± 5.0 (n=5) mm^2
[1]; [8]
  % Cartilage: 11.0± 4.7 (n=5) %
  % Mineralized Tissue: 32.7 ± 2.9^∗ (n=5) %
  Callus Area: 20.1 ± 4.5 (n=5) mm^2
[1]; VAC 1.5 mg/kg, 7 days (and 10 days), p < 0.05
  percent cartilage compared to controls: statistically higher
[1]; [9]
  % Cartilage: 17.8± 5.5 (n=5) %
  % Mineralized Tissue: 15.2 ± 3.4 (n=5) %
  Callus Area: 18.6 ± 2.9 (n=5) mm^2
[1]; [10]
  % Cartilage: 13.0 ± 6.4 (n=5) %
  % Mineralized Tissue: 21.9 ± 3.2^∗ (n=5) %
  Callus Area: 19.3 ± 3.1 (n=5) mm^2
[1]; [11]
  % Cartilage: 9.4± 5.7 (n=4) %
  % Mineralized Tissue: 33.4 ± 5.2 (n=4) %
  Callus Area: 20.3± 5.1 (n=4) mm^2
[2]; VAC 0.25 mg/kg local, no carrier, normal rats, 4 weeks, normalized to intact femur
  Percent maximum torsional rigidity: 67 ± 21 ^∗ Percent
[2]; [12]
  Maximum Torque to Failure: 362 ± 49 ^∗,# Nmm
  Maximum Torsional Rigidity: 45,877 ± 13,079^∗ Nmm^2/rad
[2]; [13]
  Percent Maximum Torque to Failure: 72 ± 19 ^∗ Percent
  Percent maximum torsional rigidity: 103 ± 23 ^∗,# Percent
[2]; [14]
  Effective Shear Modulus: 9.6×10^2 ± 7.8×10^2 MPa
  Maximum Torsional Rigidity: 3.4×10^4 ± 1.5×10^4* Nmm^2/rad and 3.4×10^4 ± 1.5×10^4∗ Nmm^2/rad
[2]; VAC 1.5 mg/kg Autoclaved, no carrier, four weeks, normalized to intact femur
  Percent maximum torsional rigidity: 70 ± 31 ^∗ Percent
[2]; [15]
  Effective Shear Modulus: 7.9×10^2 ± 2.4×10^2 MPa
  Maximum Torsional Rigidity: 2.6×10^4 ± 3.7×10^3 Nmm^2/rad
[2]; [16]
  Maximum Torque to Failure: 471 ± 91 Nmm
  Maximum Torsional Rigidity: 34,522 ± 8,347^* Nmm^2/rad
[2]; [17]
  Effective Shear Modulus: 1.3×10^3 ± 1.3×10^3 MPa
  Effective Shear Stress: 43± 17 MPa
  Maximum Torsional Rigidity: 3.0×10^4 ± 1.8×10^4 Nmm^2/rad
  Mean Angle at Failure: 12± 4 degrees
[2]; VAC 1.5 mg/kg local, rats of advanced age (190-195 days), four weeks, normalized to intact femur
  Percent Maximum Torque to Failure: 44 ± 10^∗ Percent
[2]; [18]
  Effective Shear Modulus: 2.5×10^3 ± 2.4×10^3 MPa
  Effective Shear Stress: 69 ± 59 MPa
  Maximum Torque to Failure: 329 ± 117 ^∗ Nmm
  Maximum Torsional Rigidity: 3.5×10^4 ± 1.7×10^4* Nmm^2/rad and 3.5×10^4 ± 1.7×10^4∗ Nmm^2/rad
[2]; [19]
  Percent Effective Shear Modulus: 23 ± 12 ^∗ Percent
  Percent maximum torsional rigidity: 76 ± 28 ^∗ Percent
[2]; [20]
  Effective Shear Modulus: 2,948 ± 1,218 ^∗ MPa
  Effective Shear Stress: 101 ± 18 ^∗,#,& MPa
  Maximum Torque to Failure: 409 ± 43 ^∗,# Nmm
  Maximum Torsional Rigidity: 41,007 ± 11,236 ^∗ Nmm^2/rad
[2]; [21]
  Percent Effective Shear Modulus: 20 ± 11 ^∗ Percent
  Percent Effective Shear Stress: 30 ± 12 ^∗,# Percent
  Percent Maximum Torque to Failure: 79 ± 12 ^∗ Percent
  Percent maximum torsional rigidity: 78 ± 10 ^∗ Percent
[2]; VAC 3.0 mg/kg local, no carrier, normal rats, 5 weeks
  Maximum Torsional Rigidity: 37,496 ± 12,846^∗ Nmm^2/rad
[2]; VAC therapeutic dosage range 0.5 to 3.0 mg/Kg
  increase in mechanical parameter of torsion: two to three-fold
[3]; VAC high (3.0 mg/kg)
  ectopic bone formation on radiographs: no evidence of ectopic bone formation
[3]; VAC low (1.5 mg/kg)
  ectopic bone formation on radiographs: no evidence of ectopic bone formation
[3]; local VAC, throughout fracture healing, normal remodeling
  toxic/carcinogenic effect (remodeling of femora): no evidence of a toxic/carcinogenic effect
[4]; seven and ten days post-fracture, p < 0.05
  cell proliferation (BrdU positive cells) in the periosteum versus control: significantly more proliferating cells per unit area
[4]; two or four days post-fracture
  cell proliferation (BrdU positive cells) versus control: no significant differences
[5]
  time locally injected VAC remains bound within the fractured femora: approximately two weeks
